Data on 2 compounds can be found in PMC6835763, “Influence of Short Cationic Lipopeptides with Fatty Acids of Different Chain Lengths on Bacterial Biofilms Formed on Polystyrene and Hydrogel Surfaces” (Pharmaceutics, 2019).

In brackets after ≈: the same amount, converted by molar mass. Where a SMILES comes first, the peptide text is derived from it. The star is where a group is joined. Myristoyl = CCCCCCCCCCCCCC(=O)*

Data set [1] in a line: RP-HPLC retention to evaluate the hydrophobicity of lipopeptides. It counts as physicochemical. The note with it: chromatographic, Luna C18(2) 3.0 × 100 mm, 5.0 µm, linear 20–80% acetonitrile in water over 10 min, 0.1% formic acid, 0.5 mL/min, UV 214 nm, used to evaluate hydrophobicity. The method, then: The crude peptide was lyophilized and subsequently purified by RP-HPLC. The purifications were carried out on a Phenomenex Gemini-NX C18 column (21.20 × 100 mm, 5.0 µm particle size, and 110 Å pore size). Acetonitrile and water, both containing 0.1% of TFA, were used as the mobile phase. UV detection at 214 nm was used. The crude peptides were eluted with a linear 20–80% acetonitrile gradient in deionized water over 60 min at a flow rate of 10.0 mL/min. The purity and identity of the peptides were confirmed with LC-MS analysis. A Waters Alliance e2695 RP-HPLC system (Waters, Milford, MA, USA) with Waters 2998 PDA (Waters, Milford, MA, USA) and Acquity QDA detectors (Empower®3 software, Database Version 7.21.00.00) was used. All analyses were carried out on a Phenomenex, Luna C18(2) column (3.0 × 100 mm, 5.0 µm particle size, 100 Å pore size). The samples were analyzed with a linear 20–80% acetonitrile gradient in deionized water over 10 min at a flow rate of 0.5 mL/min with UV detection at 214 nm. Both eluents contained 0.1% (v/v) of formic acid. The pure fractions (>95%, by HPLC analysis) were collected and lyophilized. The retention time and percentage of ACN (%) at which each peptide was eluted are included in Table 1 to evaluate the hydrophobicity of lipopeptides. The identity of all compounds was confirmed using mass spectrometry (Waters Alliance e2695 system with Acquity QDA detector, Waters, Milford, MA, USA) with electrospray ionization in positive ion mode (ESI-MS). In this mode, a proton is attached to basic moieties (amine groups, guanidine groups). The theoretical mass of the peptide was calculated and then expected ions (m/z—mass to charge ratio) were compared to measured m/z. The results are presented in Table 1, and mass spectra are presented in the Supplementary Materials.

The test system of data set [2] is Enterococcus faecalis ATCC 29212. It counts as cell-based. The note with it: ATCC 29212, 18 h. How it is done:
(§1) The reference strains of gram-positive and gram-negative bacteria (Table 2) were obtained from the Polish Collection of Microorganisms (Polish Academy of Science, Wroclaw, Poland). The microorganisms were cultured in Muller Hinton Broth II (MHB II, Biocorp, Warsaw, Poland), overnight, at 37 °C. The MICs of synthetic lipopeptides and conventional antimicrobials were determined using the broth microdilution method according to the Clinical and Laboratory Standard Institute (CLSI) guidelines on reference strains. […] The PS were incubated under aerobic conditions at 37 °C for 18 h. The MIC (μg/mL) was assumed as the lowest concentration of the compound that inhibited the growth of the microorganisms. All experiments were performed in triplicate and included the growth and sterility controls.

For data set [3], the system named is Escherichia coli ATCC 25922. Format: cell-based. The following applies: ATCC 25922, 18 h. The method, then: as §1
Data set [4] deals with Proteus mirabilis PCM 543. It counts as cell-based. The note with it: PCM 543, 18 h. The method, then:
as §1

Data set [5] has as its system Pseudomonas aeruginosa ATCC 9027. Format: cell-based. The following applies: ATCC 9027, 18 h. The method, then:
as §1

Data set [6] relates to Staphylococcus aureus ATCC 25923. It counts as cell-based. The following applies: ATCC 25923, 18 h. The method, then:
as §1

Data set [7] deals with Staphylococcus epidermidis ATCC 14990. Format: cell-based. The following applies: ATCC 14990, 18 h. How it is done:
as §1

Data set [8] has as its system Enterococcus faecalis ATCC 29212. The data set can be described thus: MBFIC assay (biofilm formation inhibition, resazurin). It counts as cell-based. The following applies: ca. 5 × 10^8 CFU/mL in MHB II, 37 °C, 18 h, visual, triplicate; for MBFIC E. faecalis, CL: contact lenses (CL, Etafilcon A hydrogel) in 24-well plates; for MBFIC E. faecalis, PS: polystyrene plates (PS), 96-well. How it is done:
(§2) To determine the inhibitory effect of antimicrobials on the formation of biofilm on hydrophobic surfaces, the bacterial suspensions of strains (initial inoculum of ca. 5 × 10^8 CFU/mL in MHB II medium supplemented with antimicrobials) were cultured on 96-well PS at 37 °C for 18 h under aerobic conditions. After incubation, the suspensions were aspirated, and the wells were rinsed three times with sterile phosphate buffer PBS (AppliChem, Darmstadt, Germany) in order to remove the planktonic cells. Resazurin (final concentration per sample = 0.005%) was applied as a cell viability reagent for reading the results. In contact with the living cells, the dye is metabolized by bacterial dehydrogenases, resulting in a reduction of blue resazurin to pink resorufin. All assays were performed in triplicate and included the growth controls (positive controls: bacterial suspensions without antimicrobials) and the sterility controls (negative controls: a sterile MBH medium). After 1h of incubation, a visual evaluation of results was made. […] In a preliminary study, it was established that the application of lipopeptides at a concentration found active from visual evaluation caused the reduction of bacterial metabolism to approximately 10% (or less) of the positive control once the results were evaluated with a spectrophotometer. After 1 h of incubation with the dye, absorbance was measured at 570 and 600 nm using a microplate reader (Thermo Fisher Scientific, Waltham, MA, USA). The metabolic activity of bacteria in the samples was measured according to the formula presented in the previous paper.
(§3) The MBFIC assay with CL was applied in order to access the influence of lipopeptides on the biofilm formation on hydrogel surfaces. The entire sterile CL (1-Day Acuvue Moist, containing Etafilcon A., purchased from Johnson & Johnson (Vision Care, Jacksonsville, FL, USA), were placed in 24-well PS (Orange Scientific, Braine-l’ Alleud, Belgium) and the MBFICs were determined according to the above protocol.
(Resazurin is reduced to fluorescent resorufin, in cell work by metabolically active cells.)

Data set [9] has as its system Escherichia coli ATCC 25922. The data set is described as above. The note with it: ca. 5 × 10^8 CFU/mL in MHB II, 37 °C, 18 h, visual, triplicate; for MBFIC E. coli, CL: contact lenses (CL, Etafilcon A hydrogel) in 24-well plates; for MBFIC E. coli, PS: polystyrene plates (PS), 96-well. It counts as cell-based. How it is done:
as §2, §3

In data set [10] the test system is Proteus mirabilis PCM 543. The data set is described as above. It counts as cell-based. The note with it: ca. 5 × 10^8 CFU/mL in MHB II, 37 °C, 18 h, visual, triplicate; for MBFIC P. mirabilis, CL: contact lenses (CL, Etafilcon A hydrogel) in 24-well plates; for MBFIC P. mirabilis, PS: polystyrene plates (PS), 96-well. The method, then: as §2, §3
Data set [11] has as its system Pseudomonas aeruginosa ATCC 9027. The description is as above. Format: cell-based. The following applies: ca. 5 × 10^8 CFU/mL in MHB II, 37 °C, 18 h, visual, triplicate; for MBFIC P. aeruginosa, CL: contact lenses (CL, Etafilcon A hydrogel) in 24-well plates; for MBFIC P. aeruginosa, PS: polystyrene plates (PS), 96-well. How it is done: as §2, §3
In data set [12] the test system is Staphylococcus aureus ATCC 25923. The description is as above. It counts as cell-based. The note with it: for MBFIC S. aureus, CL: contact lenses (CL, Etafilcon A hydrogel) in 24-well plates; for MBFIC S. aureus, CL / MBFIC S. aureus, PS: ca. 5 × 10^8 CFU/mL in MHB II, 37 °C, 18 h, resazurin, visual, triplicate; for MBFIC S. aureus, PS: polystyrene plates (PS), 96-well. The method, then: as §2, §3

Data set [13] deals with Staphylococcus epidermidis ATCC 14990. The data set is described as above. It counts as cell-based. The following applies: ca. 5 × 10^8 CFU/mL in MHB II, 37 °C, 18 h, resazurin, visual, triplicate; for MBFIC S. epidermidis, CL: contact lenses (CL, Etafilcon A hydrogel) in 24-well plates; for MBFIC S. epidermidis, PS: polystyrene plates (PS), 96-well. The method, then:
as §2, §3

Consider `CCCCCCCCCCCCCC(=O)N[C@@H](CCCCN)C(=O)N[C@@H](CCCNC(=N)N)C(N)=O` [Lipopeptide 4, C14-KR-NH2] (Myristoyl-Lys-Arg-NH2), for which, in data set [1], the “% ACN at which the peptide was eluted” value amounted to 39.7% and the “tR' (adjusted retention time)” value is listed as 3.29 min. Besides, the “MIC E. faecalis” value in data set [2] worked out at 32 µg/mL (≈ 62.5 µM). Also, the “MIC E. coli” value in [3] is 32 µg/mL (≈ 62.5 µM). Also, the “MIC P. mirabilis” value in data set [4] was 512 µg/mL (≈ 1000 µM). For the same compound, in [5], the “MIC P. aeruginosa” value worked out at 128 µg/mL (≈ 250 µM). The “MIC S. aureus” value in data set [6] was found to be 32 µg/mL (≈ 62.5 µM). For the same compound, the “MIC S. epidermidis” value in data set [7] is 4 µg/mL (≈ 7.82 µM). Besides, in [8], the “MBFIC E. faecalis, CL” value amounted to 64 µg/mL and the “MBFIC E. faecalis, PS” value stood at 128 µg/mL. Further, in [9], the “MBFIC E. coli, CL” value is listed as 128/128 μg/mL and the “MBFIC E. coli, PS” value is on record as 128/128 μg/mL. Also, in [10], the “MBFIC P. mirabilis, CL” value is 512/>512 μg/mL and the “MBFIC P. mirabilis, PS” value was 512/>512 μg/mL. In [11], the “MBFIC P. aeruginosa, CL” value amounted to 128 µg/mL and the “MBFIC P. aeruginosa, PS” value turned out to be 256 µg/mL. Moreover, in data set [12], the “MBFIC S. aureus, CL” value was 2 µg/mL and the “MBFIC S. aureus, PS” value was 16 µg/mL. The “concentrations inhibiting formation of SA biofilm (MBFIC range)” value in [12] (range over PS and CL) lay within 2 to 16 µg/mL. In addition, in data set [13], the “MBFIC S. epidermidis, CL” value is recorded as 32/32 μg/mL and the “MBFIC S. epidermidis, PS” value is reported as 32/32 μg/mL.
For `CCCCCCCCCCCCCCCC(=O)N[C@@H](CCCCN)C(=O)N[C@@H](CCCCN)C(=O)N[C@@H](CCCCN)C(N)=O` [Lipopeptide 7, C16-KKK-NH2], in data set [1], the “% ACN at which the peptide was eluted” value was determined as 37.9% and the “tR' (adjusted retention time)” value was determined as 2.98 min. Further, the “MIC E. faecalis” value in [2] was determined as 16 µg/mL (≈ 25 µM). The “MIC E. coli” value in data set [3] was 32 µg/mL (≈ 50 µM). For the same compound, the “MIC P. mirabilis” value in data set [4] came out at 256 µg/mL (≈ 400 µM). Also, the “MIC P. aeruginosa” value in data set [5] was 64 µg/mL (≈ 100 µM). In addition, the “MIC S. aureus” value in data set [6] came to 64 µg/mL (≈ 100 µM). The “MIC S. epidermidis” value in data set [7] came out at 16 µg/mL (≈ 25 µM). In addition, in data set [8], the “MBFIC E. faecalis, CL” value is reported as 64/64 μg/mL and the “MBFIC E. faecalis, PS” value is 64/64 μg/mL. In addition, in data set [9], the “MBFIC E. coli, CL” value came to 32 µg/mL and the “MBFIC E. coli, PS” value came out at 64 µg/mL. In data set [10], the “MBFIC P. mirabilis, CL” value stood at 256 µg/mL and the “MBFIC P. mirabilis, PS” value was found to be 512 µg/mL. Also, in data set [11], the “MBFIC P. aeruginosa, CL” value is recorded as 512/512 μg/mL and the “MBFIC P. aeruginosa, PS” value is reported as 512/512 μg/mL. Further, in data set [12], the “MBFIC S. aureus, CL” value is reported as 32/32 μg/mL and the “MBFIC S. aureus, PS” value was 32/32 μg/mL. In addition, in data set [13], the “MBFIC S. epidermidis, CL” value stood at 32 µg/mL and the “MBFIC S. epidermidis, PS” value amounted to 8 µg/mL.
